# Measured values: PMC4488747, “Inhibition of P-glycoprotein Gene Expression and Function Enhances Triptolide-induced Hepatotoxicity in Mice” (Scientific Reports, 2015)
# d = 2'-deoxy (DNA)
# Key:
# BALB/C mice [1] = assay: Serum ALT and AST (TP-induced hepatotoxicity) in mice; format: in vivo; settings: TP 1 mg/kg iv with P-gp modulator, 24 h after TP
# Description: For TP plasma kinetic study and toxicological evaluation, mice were divided into four groups (n = 5 each) to collect blood and tissue samples: (1) normal + saline group; (2) 1.0 mg/kg TP + 15 nmol NC-siRNA group; (3) 1.0 mg/kg TP + 15 nmol mdr1a-siRNA group; (4) 1.0 mg/kg TP + 10 mg/kg tariquidar group. In order to avoid the complication caused by drug absorption or possible intestinal first-pass effect, TP and the inhibitor were intravenously administrated to mice. The siRNA group was intravenously injected with NC-siRNA or mdr1a-siRNA 2 days before TP dose. For TP + tariquidar group, the mice were received an intravenous tariquidar dose 20 min prior to the TP injection. Blood samples were collected at 2, 5, 10, 15, 30, 60 and 120 min after TP dosing. To assess the liver exposure of TP, liver tissue samples were collected from another set of mice at 5, 30, 60 and 120 min after dosing. Three TP groups were design for this experiment, including TP + NC-siRNA group, TP + mdr1a-siRNA group and TP + tariquidar group. The liver tissue samples were weighed and then homogenized in 10 volume (w:v) of ice-cold saline. The concentrations of TP in plasma and liver tissue were measured by a validated LC-MS/MS method. Prior to the above animal study, a preliminary experiment was performed to assess the possible differences in liver P-gp protein expression (Figure S1) and TP plasma kinetics between NC-siRNA treated mice and normal mice (with saline) (Figure S2 and supplemental Table 1). […] Therefore, NC-siRNA group was used as the control in the following animal study.
# (§1) At 24 h of TP treatment, blood and liver tissue samples were collected from the mice in plasma kinetic study. Serum ALT and AST levels were determined with a CL8000 automated biochemical analyzer (Shimadzu, Japan) after serum was separated by centrifugation at 900 g for 10 min. Liver tissue samples were divided into two parts, the first half was kept at −80 °C until MDA and SOD measurements using MDA and SOD assay kits (Nanjing Jiancheng Bioengineering Institute, Nanjing, China) according to the manufacturer’s instructions. The other half was fixed with 4% paraformaldehyde solution and then dehydrated, embedded in paraffin and sectioned at a thickness of 5 μm. Four paraffin sections from each mouse were dewaxed, rehydrated and stained with hematoxylin-eosin (HE) for overall morphological evaluation. The total protein concentration was quantified by the BCA assay. Bcl-2 and Bax proteins were measured by western blot.
# BALB/C mice [2] = assay: Liver histopathology (HE staining) in mice; format: in vivo; settings: TP 1 mg/kg iv, 24 h, TP = NC-siRNA group, tariquidar and mdr1a-1 siRNA = given before TP
# Description: For TP plasma kinetic study and toxicological evaluation, mice were divided into four groups (n = 5 each) to collect blood and tissue samples: (1) normal + saline group; (2) 1.0 mg/kg TP + 15 nmol NC-siRNA group; (3) 1.0 mg/kg TP + 15 nmol mdr1a-siRNA group; (4) 1.0 mg/kg TP + 10 mg/kg tariquidar group. In order to avoid the complication caused by drug absorption or possible intestinal first-pass effect, TP and the inhibitor were intravenously administrated to mice. The siRNA group was intravenously injected with NC-siRNA or mdr1a-siRNA 2 days before TP dose. For TP + tariquidar group, the mice were received an intravenous tariquidar dose 20 min prior to the TP injection. Blood samples were collected at 2, 5, 10, 15, 30, 60 and 120 min after TP dosing. To assess the liver exposure of TP, liver tissue samples were collected from another set of mice at 5, 30, 60 and 120 min after dosing. […] The concentrations of TP in plasma and liver tissue were measured by a validated LC-MS/MS method. […]
# At 24 h of TP treatment, blood and liver tissue samples were collected from the mice in plasma kinetic study. Serum ALT and AST levels were determined with a CL8000 automated biochemical analyzer (Shimadzu, Japan) after serum was separated by centrifugation at 900 g for 10 min. […] The total protein concentration was quantified by the BCA assay. Bcl-2 and Bax proteins were measured by western blot.
# Bcl-2/Bax = assay: Bcl-2 and Bax expression in mouse liver (western blot); format: in vivo; settings: mice, TP 1 mg/kg iv, 24 h; tariquidar and mdr1a-siRNA = given before TP
# Description: For protein extraction, the cells or mice liver tissues were homogenized in RIPA buffer and then centrifuged at 14,000 g at 4 °C for 30 min. The supernatant was collected and the protein concentration was measured using BCA assay. The sample (50 μg protein/sample) was then loaded on 12% polyacrylamide gels and transferred to polyvinylidene difluoride membranes (Millipore, USA). After blocked by 3% bovine serum albumin, the membranes were incubated with primary antibodies and HRP-conjugated secondary antibody, and then detected using the enhanced chemiluminescence plus detection system (Molecular Device, Lmax, USA). The density of each band was quantified by using image analysis software (Science Lab 2005 Image Guage; Tokyo, Japan).
# as §1, with “The other half was fixed with 4% paraformaldehyde solution and then dehydrated, embedded in paraffin and sectioned at a thickness of 5 μm. Four paraffin sections from each mouse were dewaxed, rehydrated and stained with hematoxylin-eosin (HE) for overall morphological evaluation.” left out
# [3] = Preliminary experiment: effect of NC-siRNA on pharmacokinetics of TP in mice; format: in vivo; settings: TP 1.0 mg/kg
# Description: Effect of NC-siRNA on pharmacokinetic of TP
# Mice were divided into two groups to collect blood samples (n=5 each): (1) 1.0 mg/kg TP + saline group; (2) 1.0 mg/kg TP + 15 nmol NC-siRNA group. The siRNA group was intravenously injected with NC-siRNA 2 days before TP dose. Blood samples were collected at 2, 5, 10, 15, 30, 60 and 120 min after TP dosing. The concentrations of TP in plasma and liver were measured by a validated LC-MS/MS method.
# P-gp = target: T1, P-gp (Mus musculus, UniProt P21447); assay: P-gp function in knockdown mice assessed by digoxin plasma pharmacokinetics; format: in vivo; settings: iv, 1 mg/kg, digoxin 1 mg/kg injection
# T1 construct: from tissue; host or cells: whole living mice (in vivo, intravenous digoxin 1 mg/kg after NC-siRNA or mdr1a-1 siRNA)
# Description: For validation of silence efficiency in vivo, mdr1a-1 siRNA was injected via the tail vein of mice after diluted to 5, 10 and 15 nmol with saline in 200 μl. After 48 h, the mice were euthanized and the liver was collected for measurement of the P-gp protein expression using western blot. The P-gp function in gene knockdown mice was assessed using digoxin, a known P-gp substrate. NC-siRNA or mdr1a-1 siRNA was intravenously injected 2 days prior to the injection of digoxin (1mg/kg). Blood samples were collected at 5, 15, 30, min and 1, 2, 4, 6, 8, 12 hours post digoxin dose (n = 5/time-point for each group). The digoxin concentrations in samples were quantitatively analyzed by a published LC-MS/MS method.
# Toxicokinetic parameters, including area under the plasma concentration-time curve (AUC), volume of distribution (Vd), clearance (CL), mean residence time (MRT) and terminal elimination half-life (t1/2), were calculated by non-compartmental analysis using WinNonlin 5.2 software (Pharsight Corporation, CA, USA). All the data were expressed as mean ± SD. Differences between groups were compared by Student’s t-test for analysis of unpaired data or one-way ANOVA. Statistical significance was accepted at P < 0.05.
# mdr1a mRNA = assay: RNAi knockdown of mdr1a mRNA in CT26.WT cells (real-time PCR); format: cell-based, mouse; settings: siRNA 80 pM with Lipofectamin 2000, 48 h after transfection
# Description: CT26.WT cells, a mouse colon carcinoma cell line, were obtained from ATCC and maintained in RPMI-1640 supplemented with 10% fetal bovine serum. Cells were seeded to 6-well plates at a density of 5 × 10^5 cells/well and cultured for 24 h. Transfection was performed in Opti-MEM (Invitrogen, Carlsbad, CA, USA) with synthetic siRNA (80 pM) by using Lipofectamin 2000 (Invitrogen, Carlsbad, CA, USA) for 6 h and the medium was replaced with fresh RPMI-1640. This condition was optimized in our preliminary experiments based on the transfection efficiency and the cellular viability. Following incubation for 48 h, the cells were washed three times with phosphate buffered saline buffer (PBS) and total RNA and protein were collected.
# Total RNA from CT26. WT cells was extracted with Trizol (Invitrogen, Carlsbad, CA, USA) according to the manufacturer’s instructions. RNA samples (1 μg) were reverse transcribed by adding oligo(dT)18 (MBI Fermentas, USA), dNTP, RNase inhibitor, and M-MLV reverse transcriptase (Takara, Japan), holding at room temperature for 10 min and incubating at 42 °C for 60 min. The samples were heated at 72 °C to inactivate enzymes for 10 min and stored at −20 °C. Real-time PCR was performed using sense and antisense primers. […] The relative amount of target mRNA was determined using the comparative threshold (Ct) method by normalizing target mRNA Ct values to those for β-actin (ΔCt). […]
# T1 sequence (P21447 whole entry): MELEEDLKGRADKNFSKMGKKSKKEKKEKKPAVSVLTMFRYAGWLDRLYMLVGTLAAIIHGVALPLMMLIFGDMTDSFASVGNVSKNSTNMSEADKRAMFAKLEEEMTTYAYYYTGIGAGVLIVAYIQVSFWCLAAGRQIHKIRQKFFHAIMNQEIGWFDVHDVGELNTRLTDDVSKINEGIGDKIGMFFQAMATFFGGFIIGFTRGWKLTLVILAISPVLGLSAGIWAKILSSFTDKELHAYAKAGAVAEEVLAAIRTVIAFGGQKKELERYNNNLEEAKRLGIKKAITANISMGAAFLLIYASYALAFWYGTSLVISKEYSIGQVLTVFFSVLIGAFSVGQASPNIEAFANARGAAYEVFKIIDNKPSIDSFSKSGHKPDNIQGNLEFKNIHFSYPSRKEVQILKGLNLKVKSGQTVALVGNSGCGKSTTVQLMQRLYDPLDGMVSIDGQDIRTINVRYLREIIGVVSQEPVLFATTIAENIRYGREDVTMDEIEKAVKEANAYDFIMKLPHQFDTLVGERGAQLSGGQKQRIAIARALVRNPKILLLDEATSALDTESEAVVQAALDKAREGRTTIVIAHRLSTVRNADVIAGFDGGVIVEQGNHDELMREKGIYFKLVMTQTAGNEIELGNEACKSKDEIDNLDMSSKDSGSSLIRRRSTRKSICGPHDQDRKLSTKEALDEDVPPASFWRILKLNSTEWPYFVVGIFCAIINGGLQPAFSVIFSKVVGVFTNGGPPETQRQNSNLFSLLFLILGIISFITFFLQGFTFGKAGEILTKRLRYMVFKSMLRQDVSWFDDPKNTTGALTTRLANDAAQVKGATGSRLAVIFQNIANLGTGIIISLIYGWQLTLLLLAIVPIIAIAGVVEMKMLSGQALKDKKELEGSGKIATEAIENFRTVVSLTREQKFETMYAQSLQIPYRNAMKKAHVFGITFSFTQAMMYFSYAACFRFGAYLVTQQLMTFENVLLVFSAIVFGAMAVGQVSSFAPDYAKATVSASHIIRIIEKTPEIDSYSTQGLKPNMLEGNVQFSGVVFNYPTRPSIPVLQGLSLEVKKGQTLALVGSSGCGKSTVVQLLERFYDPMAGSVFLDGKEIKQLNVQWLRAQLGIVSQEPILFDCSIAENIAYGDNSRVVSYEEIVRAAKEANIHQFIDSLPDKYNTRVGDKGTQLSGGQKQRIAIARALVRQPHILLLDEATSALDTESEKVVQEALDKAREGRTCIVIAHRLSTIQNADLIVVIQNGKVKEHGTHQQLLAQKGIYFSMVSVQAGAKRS
compound,measurement,setting,value
"COc1cc2c(cc1OC)CN(CCc1ccc(NC(=O)c3cc(OC)c(OC)cc3NC(=O)c3cnc4ccccc4c3)cc1)CC2 [tariquidar, Tariquidar, reference compound]","Serum ALT level, folds of the TP+NC-siRNA group",BALB/C mice [1],1.2 folds
same,"Serum AST level, folds of the TP+NC-siRNA group",BALB/C mice [1],1.9 folds
same,Histopathological changes in liver (HE),BALB/C mice [2],more severe
same,Bcl-2/Bax ratio in liver,Bcl-2/Bax,markedly reduced the ratio
"NC-siRNA: negative control siRNA, sense 5′-UUCUCCGAACGUGUCACGUTT-3′ (antisense ACGUGACACGUUCGGAGAATT; sugars by position and backbone not given here; 3' and 5' ends modified with methylation and cholesterol) [reference compound]","Differences in TP plasma concentrations and kinetic parameters, NC-siRNA treated vs normal (saline) mice",[3],No significant differences
"C[C@H]1O[C@@H](O[C@H]2[C@@H](O)C[C@H](O[C@H]3[C@@H](O)C[C@H](O[C@H]4CC[C@@]5(C)[C@H](CC[C@@H]6[C@@H]5C[C@@H](O)[C@]5(C)[C@@H](C7=CC(=O)OC7)CC[C@]65O)C4)O[C@@H]3C)O[C@@H]2C)C[C@H](O)[C@@H]1O [Digoxin, digoxin]",AUC(0-t),P-gp; NC-siRNA iv 2 days prior,3360 ± 739 ng·h/mL
same,Cmax,P-gp; NC-siRNA iv 2 days prior,1740 ± 574 ng/mL
same,MRT,P-gp; NC-siRNA iv 2 days prior,3.7 ± 0.3 h
same,Vd,P-gp; NC-siRNA iv 2 days prior,2 ± 0.5 L/kg
same,clearance,P-gp; NC-siRNA iv 2 days prior,4.21 mL/min/kg
same,half-life,P-gp; NC-siRNA iv 2 days prior,5.7 ± 1.3 h
same,AUC(0-t),P-gp; mdr1a-1 siRNA iv 2 days prior,8770 ± 1450 ng·h/mL
same,Cmax,P-gp; mdr1a-1 siRNA iv 2 days prior,2260 ± 267 ng/mL
same,MRT,P-gp; mdr1a-1 siRNA iv 2 days prior,3.8 ± 0.4 h
same,Vd,P-gp; mdr1a-1 siRNA iv 2 days prior,0.6 ± 0.08 L/kg
same,clearance,P-gp; mdr1a-1 siRNA iv 2 days prior,1.66 mL/min/kg
same,half-life,P-gp; mdr1a-1 siRNA iv 2 days prior,4 ± 1.4 h
"mdr1a-3: murine mdr1a siRNA, sense 5′-GGCUGGACAAGCUGUGCAUGG-3′ (antisense AUGCACAGCUUGUCCAGCCAA; sugars by position and backbone not given here; 3' and 5' ends modified with methylation and cholesterol)",Silencing efficiency on mdr1a mRNA,mdr1a mRNA,46%
"mdr1a-2: murine mdr1a siRNA, sense 5′-r(AGA AGGAAC UAG AAG GUU CUG) d(TT)-3′ (sense AGAAGGAACUAGAAGGUUCUG; antisense CAGAACCUUCUAGUUCCUUCU; RNA, 3' dTdT, backbone and methylation of C not given here; 3' and 5' ends modified with methylation and cholesterol)",Silencing efficiency on mdr1a mRNA,mdr1a mRNA,51%
